Data: ChEMBL document CHEMBL2073828, “The breast cancer resistance protein (Bcrp1/Abcg2) restricts exposure to the dietary carcinogen 2-amino-1-methyl-6-phenylimidazo[4,5-b]pyridine” (Cancer Res, 2003)

Tests used:
[1] = target: T1, Broad substrate specificity ATP-binding cassette transporter ABCG2 (Mus musculus, UniProt Q7TMS5); assay: TP_TRANSPORTER: intestinal excretion; type: functional, organism-based; settings: in vivo
T1 sequence (Q7TMS5 whole entry): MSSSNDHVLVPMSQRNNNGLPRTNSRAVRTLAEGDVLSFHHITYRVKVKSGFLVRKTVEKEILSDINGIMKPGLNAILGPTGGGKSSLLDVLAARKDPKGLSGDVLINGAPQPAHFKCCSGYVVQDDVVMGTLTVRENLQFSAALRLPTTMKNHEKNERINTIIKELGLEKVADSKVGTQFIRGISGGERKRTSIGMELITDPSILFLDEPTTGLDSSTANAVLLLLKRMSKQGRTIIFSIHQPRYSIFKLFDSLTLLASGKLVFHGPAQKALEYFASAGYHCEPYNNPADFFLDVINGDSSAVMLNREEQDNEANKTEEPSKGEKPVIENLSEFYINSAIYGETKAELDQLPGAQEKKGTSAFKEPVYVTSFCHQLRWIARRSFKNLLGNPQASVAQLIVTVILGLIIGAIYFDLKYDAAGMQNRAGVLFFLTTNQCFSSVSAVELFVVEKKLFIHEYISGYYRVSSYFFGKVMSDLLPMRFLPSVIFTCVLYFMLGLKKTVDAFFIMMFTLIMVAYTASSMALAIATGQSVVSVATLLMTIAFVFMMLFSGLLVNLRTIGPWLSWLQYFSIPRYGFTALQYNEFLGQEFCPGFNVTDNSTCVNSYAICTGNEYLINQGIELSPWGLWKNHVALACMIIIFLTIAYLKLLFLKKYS

[2] = target: T1, Broad substrate specificity ATP-binding cassette transporter ABCG2; assay: TP_TRANSPORTER: transcellular transport in MDCKII; type: functional, cell-based; settings: dog, mdck-ii
[3] = target: T1, Broad substrate specificity ATP-binding cassette transporter ABCG2; assay: TP_TRANSPORTER: biliary excretion; type: functional, organism-based, Bile; settings: in vivo

Measured: Activity

Cn1c(N)nc2ncc(-c3ccccc3)cc21 [2-AMINO-1-METHYL-6- PHENYLIMIDAZO[4,5- B]PYRIDINE]
substrate []: all assays above
